Data as given in US8680065B2, “Oligonucleotides of human endogenous retrovirus 9 (ERV-9) long terminal repeat (LTR) and methods of use” (The United States of America, as represented by the …, priority 2008, dated 2014).

Experiments:
[1] = test system: MCF-7 cells; test: Tumor cell proliferation, siRNA in LIPOFECTAMINE, 72 hours; type: cell-based, human; conditions: siRNA 100 nM
Method: (§1) FIG. 20 is a pair of graphs showing the effect of ERV-9 LTR U3 region siRNA (SEQ ID NOs: 13 and 14), alone or in combination with VP16, on proliferation of MDA-231 (top) and MCF-7 (bottom) cells. 4×10^4 cells were treated with siRNAs formulated in LIPOFECTAMINE™ at 100 nM for 72 hours. RRM2 is a combination of three siRNAs (SEQ ID NOs: 15, 16, and 17) against ribonucleotide reductase subunit M2. Relative cell proliferation levels were expressed as percentage of non-treated control.
(§2) 4×10^4 cells were treated with siRNAs formulated in LIPOFECTAMINE™ at 100 nM for 72 hours. […] For RRM2, a combination of the 3 siRNAs was used at final concentration of 100 nM. Relative cell proliferation levels were expressed as percentage of non-treated control. Student's t-test was used for statistics.

[2] = test system: MDA-231 cells; test: as above; type: cell-based, human; conditions: siRNA 100 nM
Method: as §1, §2

[3] = test system: MDA-231 cells (a breast cancer cell line); test: Cancer cell proliferation, oligonucleotide in LIPOFECTAMINE, 48 hours, direct cell counting; type: cell-based, human; conditions: oligonucleotide 10, 20 or 30 μg/ml, P<0.05
[4] = test system: LNcaP cells (a prostate cancer cell line); test: as above; type: cell-based, human; conditions: oligonucleotide 10, 20 or 30 μg/ml
[5] = test system: MDA-231 cells; test: Cancer cell proliferation, oligonucleotide in combination with VP16, 48 hours; type: cell-based, human; conditions: oligonucleotide 15 μg/ml with VP16 30 ng/ml and 50 ng/ml, P<0.05
[6] = test system: LNcaP cells; test: as above; type: cell-based, human; conditions: oligonucleotide 15 μg/ml with VP16 30 ng/ml and 50 ng/ml
Method: FIG. 10 is a graph showing proliferation of LNcaP cells treated with ERV-9 U3 sense or antisense oligonucleotide (SEQ ID NOs: 1 and 2, respectively), in combination with VP16. Cells (4×10^4) were treated with oligonucleotide (15 μg/ml) alone or in combination with the concentrations of VP16 shown for 48 hours.
To test the effect of treating cancer cells with the combination of ERV-9 U3 oligonucleotide and VP16, six different cancer cell lines were analyzed: HT1080, (FIG. 7); MDA-231 (FIG. 8); K562 (FIG. 9); LNcaP (FIG. 10); HepG2 (FIG. 11); and MCF-7 (FIG. 12). Cells (4×10^4) were treated with 15 μg/ml ERV-9 U3 sense (SEQ ID NO: 1) or antisense (SEQ ID NO: 2) oligonucleotide alone or in combination with VP16 at a concentration of 30 ng/ml or 50 ng/ml. After 48 hours, cell proliferation was assessed by direct cell counting. Cell proliferation levels were expressed relative to GFP oligonucleotide control in the absence of VP16.

[7] = test system: HT1080 cells; test: Cancer cell proliferation, U3 and U5 oligonucleotides, 72 hours; type: cell-based, human; conditions: 20 μg/ml
Method: FIG. 16 is a graph showing the effect of sense and antisense ERV-9 U3 (SEQ ID NOs: 1, 2, 7, 8, 9, and 10) and U5 (SEQ ID NOs: 11 and 12) oligonucleotides on proliferation of HT1080 cells. Cells (4×10^4) were treated with oligonucleotide formulated in LIPOFECTAMINE™ at a concentration of 20 μg/ml for 72 hours. GFP sense oligonucleotide was used as a control to measure the non-specific cytotoxicity of phosphorothioate-based oligonucleotides. Antisense oligonucleotides G3139, GRN163, and MDM2 were also evaluated. Cell proliferation levels were expressed relative to cells transfected with GFP oligonucleotide. All U3 and U5 sense and antisense oligonucleotides inhibited cell proliferation to a greater extent that GFP control. In addition, with the exception of the U5 sense oligonucleotide, all U3 and U5 oligonucleotides inhibited cell proliferation better than the G3139, GRN163 and MDM2 antisense oligonucleotides.
(§3) HT1080 or MDA-231 cells (4×10^4 cells) were treated with ERV-9 LTR (U3 or U5) sense or antisense oligonucleotides formulated in LIPOFECTAMINE™ at a concentration of 20 μg/ml for 72 hours. GFP sense oligonucleotide was used as a control to measure the non-specific cytotoxicity of phosphorothioates-based oligonucleotides. Relative cell proliferation levels were expressed as percentage of GFP oligonucleotide transfected control. The results are shown in FIG. 16 (HT1080 cells) and FIG. 17 (MDA-231 cells).

[8] = test system: MDA-231 cells; test: as above; type: cell-based, human; conditions: 20 μg/ml
Method: FIG. 17 is a graph showing the effect of sense and antisense ERV-9 U3 and (SEQ ID NOs: 1, 2, 7, 8, 9, and 10) and U5 (SEQ ID NOs: 11 and 12) oligonucleotides on proliferation of MDA-231 cells. Cells (4×10^4) were treated with oligonucleotide formulated in LIPOFECTAMINE™ at a concentration of 20 μg/ml for 72 hours. GFP sense oligonucleotide and G3139, GRN163 and MDM2 antisense oligonucleotides were included as controls. Cell proliferation levels were expressed relative to cells transfected with GFP oligonucleotide. All U3 and U5 sense and antisense oligonucleotides inhibited cell proliferation better than GFP control and the G3139, GRN163 and MDM2 antisense oligonucleotides.
as §3

[9] = test system: tumor; conditions: U.S. Pat. Nos. 7,256,284 and 6,946,447; Ozawa et al. 2004; cited from earlier work

| Substance | cell proliferation relative to GFP oligonucleotide [3] | cell proliferation relative to GFP oligonucleotide [4] | cell proliferation relative to GFP oligonucleotide control [5] | cell proliferation relative to GFP oligonucleotide control [6] | cell proliferation relative to GFP oligonucleotide transfected control [7] | cell proliferation relative to GFP oligonucleotide transfected control [8] | tumor growth in animal models [9] | also measured |
| --- | --- | --- | --- | --- | --- | --- | --- | --- |
| ERV-9 LTR U3 siRNA: siRNA duplex of the ERV9 LTR U3 region: CUCAAGGUUUGUAAACACACCAAUCAG and CUGAUUGGUGUGUUUACAAACCUUGAG (listed as RNA, chemistry not given here) |  |  |  |  |  |  |  | cell proliferation as percentage of non-treated control [1]: inhibited cell proliferation better than RRM2 siRNAs; cell proliferation as percentage of non-treated control [2]: inhibited cell proliferation better than RRM2 siRNAs |
| G3139: antisense oligonucleotide specific for Bcl-2, TCTCCCAGCGTGCGCCAT (listed as DNA, chemistry not given here) [Oligo G3139] | inhibited cell proliferation only at oligonucleotide concentrations of 20 μg/ml and 30 μg/ml | did not significantly inhibit cell proliferation at any of the three concentration levels | inhibited cell proliferation only at a VP16 concentration of 50 ng/ml | did not inhibit cell proliferation at any VP16 concentration tested | inhibited cell proliferation better than the GFP oligonucleotide control | inhibited cell proliferation better than the GFP control oligonucleotide | has been previously shown to inhibit tumor growth in animal models |  |
| GRN163: antisense oligonucleotide specific for telomerase, TAGGGTTAGACAA (listed as DNA, further chemistry not given here) | inhibited cell proliferation only at concentrations of 10 μg/ml and 20 μg/ml | did not significantly inhibit cell proliferation at any of the three concentration levels | inhibited cell proliferation only at a VP16 concentration of 50 ng/ml | did not inhibit cell proliferation at any VP16 concentration tested |  | inhibited cell proliferation better than the GFP control oligonucleotide | has been previously shown to inhibit tumor growth in animal models |  |
| MDM2 antisense oligonucleotide: antisense oligonucleotide specific for MDM2, TGACACCTGTTCTCACTCAC (listed as DNA, chemistry not given here) | inhibited cell proliferation only at concentrations of 10 μg/ml and 20 μg/ml | inhibited cell proliferation only at a concentration of 10 μg/ml | inhibited cell proliferation only at a VP16 concentration of 50 ng/ml | inhibited cell proliferation better than GFP control only at a VP16 concentration of 30 ng/ml | inhibited cell proliferation better than the GFP oligonucleotide control | inhibited cell proliferation better than the GFP control oligonucleotide | has been previously shown to inhibit tumor growth in animal models |  |
| U3AS4: ERV-9 U3 antisense oligonucleotide GCGGCGCTCGTCGGCGAGGCACGG, target nt 3096-3119 (AF064190) (listed as DNA, chemistry not given here) [Oligo U3AS4] |  |  |  |  | inhibited cell proliferation better than G3139, GRN163 and MDM2 oligonucleotides |  |  |  |
| U3AS5: ERV-9 U3 antisense oligonucleotide CCGACCGGTTCCGGTCTCGGCCGAGG, target nt 2792-2817 (AF064190) (listed as DNA, chemistry not given here) [Oligo U3AS5] |  |  |  |  | inhibited cell proliferation better than G3139, GRN163 and MDM2 oligonucleotides |  |  |  |
| U3S4: ERV-9 U3 sense oligonucleotide CCGAGCCTCGCCGACGAGCGCCGC, target nt 3096-3119 (AF064190) (listed as DNA, chemistry not given here) [Oligo U3S4] |  |  |  |  | inhibited cell proliferation better than G3139, GRN163 and MDM2 oligonucleotides |  |  |  |
| U3S5: ERV-9 U3 sense oligonucleotide GGCTGGCCAAGGCCAGAGCCGGCTCC, target nt 2792-2817 (AF064190) (listed as DNA, chemistry not given here) [Oligo U3S5] |  |  |  |  | inhibited cell proliferation better than G3139, GRN163 and MDM2 oligonucleotides |  |  |  |
| U5AS: ERV-9 U5 antisense oligonucleotide GTTCTGATGTTTGGATGTGTTC, target nt 819-840 (AF064191) (listed as DNA, chemistry not given here) [Oligo U5AS] |  |  |  |  | inhibited cell proliferation better than G3139, GRN163 and MDM2 oligonucleotides |  |  |  |
| U5S: ERV-9 U5 sense oligonucleotide GAACACATCCAAACATCAGAAC, target nt 819-840 (AF064191) (listed as DNA, chemistry not given here) [Oligo U5S] |  |  |  |  | inhibited cell proliferation better than the GFP oligonucleotide control |  |  |  |
